Data taken from paper PMC8480901 (PLoS ONE, 2021).
“And” between values parts separate entries of the source, which are not always exact repeats. Identical values can stand only once. Like-named read-outs stand apart in the source and are kept apart here.

Key:
human neutrophils = assay: Cytotoxicity in human neutrophils (CellTiter Glo); assay type: cell-based
Method: For the chemotaxis and cytotoxicity evaluations, average relative light unit values were calculated from all untreated vehicle samples and, for each sample, percentage of vehicle value was calculated. The tested compound was considered cytotoxic if reduction from untreated vehicle was ≥20%.

J774.2 mouse macrophages = assay: Cytotoxicity in J774.2 mouse macrophages (adenylate kinase release, ToxiLight); assay type: cell-based; conditions: for cell viability: J774.2 cells; for fold-change of adenylate kinase release at test concentration vs vehicle control, Mean ± SEM: J774.2 mouse macrophages, n=2
Method: The effect of t est compounds on cell viabilit y of J 774.2 macrophages and human PBMCs […]
was determined b y comp aring th e aden yl ate kinas e signal obtain ed in the p resence of diff er ent concentrations of compounds with those obtained in DMSO (vehicle) control. Signals were […]
divided,and the results were ex pressed as fold-change versus v ehicle con trol .

[1] = Pharmacokinetics in plasma and epithelial lining fluid of mice after a single SC dose; assay type: in vivo, BALB/c mice; conditions: for AUC(0-t): read-out: AUC0-24h, mean±SEM; for Cmax: read-out: Cmax, mean±SEM
Method: Pharmacokinetic parameters were evaluated as previously described. […] Plasma samples were analyzed by liquid chromatography with […] mass spectrometry (Q Exactive Plus; Thermo Fisher Scientific).
Area under the curve (AUC) values were determined using the linear trapezoidal method.

[2] = test system: TNF-α, IL-6, IL-1β, GM-CSF, CXCL-1, CXCL-2, CCL-2 and MMP-9 in lung tissue; assay: LPS-induced cytokines, chemokines and MMP-9 in mouse lung homogenates (Luminex, ELISA)
Method: To induce pulmonary neutrophilia, mice in the control group received intranasal (IN) 50 μL saline, and all other animals received 5 μg LPS/50 μL saline IN per mouse.
After bronchoalveolar lavage, lungs were removed, weighed, snap frozen, and stored at −80°C until analysis. To homogenize the tissue, the frozen lungs were thawed and placed in Precellys CK28 Hard Tissue tubes (BERTIN Instruments, Montigny-le-Bretonneux, France) in 1 mL PBS (Gibco, Life Technologies, Paisley, UK) supplemented with protease inhibitors (Halt™ Protease Inhibitor Cocktail [100×]; Thermo Fisher Scientific, Rockford, IL, USA). A Precellys homogenizer (BERTIN Instruments) was used, shaking at 6800 rpm for three 30-second pulses separated by 15-second pauses. After homogenization, samples were centrifuged at 18,000×g for 10 minutes at 4°C, and the supernatants were collected for analysis.
Concentrations of tumor necrosis factor (TNF)-α, IL-6, granulocyte-macrophage colony-stimulating factor (GM-CSF), chemokine (C-X-C motif) ligand (CXCL)-1, CXCL-2, and chemokine (C-C motif) ligand (CCL)-2 in mouse lung homogenates were analyzed with the Mouse Premixed Multi-Analyte Kit (R&D Systems, Minneapolis, MN, USA) per the manufacturer’s protocol and using a Luminex 200 System (Luminex Corporation, Austin, TX, USA). Cytokine and chemokine concentrations were determined from blank-corrected median fluorescence intensity of each sample via xPONENT® software (Luminex Corporation), interpolating from standard curves generated with a 5-parameter logistic curve-fit.
Mouse Total MMP (matrix metalloprotease)-9 and IL-1β/IL-1F2 DuoSet ELISA (enzyme-linked immunosorbent assay) kits (R&D Systems) were used to measure concentrations of MMP-9 and IL-1β, respectively, in lung homogenates per the manufacturer’s protocols. Absorbance at 450 nm was measured using the SpectraMax i3 (Molecular Devices, San Jose, CA, USA). Concentrations of MMP-9 and IL-1β in samples were determined by interpolation from standard curves.
Differences between treated versus vehicle groups were determined using the Mann-Whitney test and were considered statistically significant when P<0.05. Outliers in the analysis of cytokine and chemokine concentrations were identified using the Grubbs test. No criteria were set for inclusion/exclusion of animals during the experiment or data points during the analysis.

[3] = female, BALB/c, mouse, epithelial lining fluid (ELF), ELF, mice, single 35 mg/kg SC
[4] = female, BALB/c, mouse, plasma, mice, single 35 mg/kg SC
[5] = all doses (10, 30, 100 mg/kg SC)
[6] = all doses tested (10, 30, 100 mg/kg SC), vs vehicle control
[7] = lung homogenate, LPS, 10 mg/kg, individual animal, listed as Lef
[8] = lung homogenate, LPS, 10 mg/kg, mean of 8

## C=C[C@]1(C)C[C@@H](OC(=O)CS[C@@H]2CC[C@@H](N)C[C@H]2O)[C@]2(C)[C@H](C)CC[C@]3(CCC(=O)[C@H]32)[C@@H](C)[C@@H]1O [Lefamulin]
Human neutrophils; 0.03 µM, n=3, percentage of RLU
  % viability at test concentration vs vehicle control, Mean ± SEM: 105 ± 1.36%
Human neutrophils; 0.1 µM, n=3
  % viability at test concentration vs vehicle control, Mean ± SEM: 106 ± 1.34%
Human neutrophils; 0.3 µM, n=3
  % viability at test concentration vs vehicle control, Mean ± SEM: 105 ± 2.39%
Human neutrophils; 1 µM, n=3
  % viability at test concentration vs vehicle control, Mean ± SEM: 103 ± 4.22%
Human neutrophils; 3 µM, n=3
  % viability at test concentration vs vehicle control, Mean ± SEM: 103 ± 3.07%
Human neutrophils; 10 µM, n=3
  % viability at test concentration vs vehicle control, Mean ± SEM: 102 ± 2.98%
Human neutrophils; 30 μM, cytotoxic if reduction from vehicle ≥20%
  cytotoxic effects: no cytotoxic effects
Human neutrophils; 30 µM, n=3
  % viability at test concentration vs vehicle control, Mean ± SEM: 101 ± 2.58%
Human neutrophils; 100 µM, n=3
  % viability at test concentration vs vehicle control, Mean ± SEM: 86 ± 2.99%
Human neutrophils; 100 µM, n=3, listed as lefamulin
  % viability at test concentration vs vehicle control, Mean ± SEM: 86%
J774.2 mouse macrophages; 30 μM
  cell viability: reduced
J774.2 mouse macrophages; 100 μM
  cell viability: reduced
J774.2 mouse macrophages; 0.03 µM
  fold-change of adenylate kinase release at test concentration vs vehicle control, Mean ± SEM: 1.33 ± 0.11 fold-change
J774.2 mouse macrophages; 0.1 µM
  fold-change of adenylate kinase release at test concentration vs vehicle control, Mean ± SEM: 1.27 ± 0.23 fold-change
J774.2 mouse macrophages; 0.3 µM
  fold-change of adenylate kinase release at test concentration vs vehicle control, Mean ± SEM: 1.10 ± 0.16 fold-change
J774.2 mouse macrophages; 1 µM
  fold-change of adenylate kinase release at test concentration vs vehicle control, Mean ± SEM: 0.89 ± 0.08 fold-change
J774.2 mouse macrophages; 3 µM
  fold-change of adenylate kinase release at test concentration vs vehicle control, Mean ± SEM: 1.12 ± 0.18 fold-change
J774.2 mouse macrophages; 10 µM
  fold-change of adenylate kinase release at test concentration vs vehicle control, Mean ± SEM: 1.26 ± 0.27 fold-change
J774.2 mouse macrophages; 30 µM
  fold-change of adenylate kinase release at test concentration vs vehicle control, Mean ± SEM: 2.00 ± 0.13 fold-change
J774.2 mouse macrophages; 100 µM
  fold-change of adenylate kinase release at test concentration vs vehicle control, Mean ± SEM: 6.18 ± 0.05 fold-change
[1]; 35 mg/kg SC in mice, human data ref 29
  plasma AUC0-24h in mice compared with exposures in healthy volunteers after a single dose of 150 mg IV: comparable
[1]; ELF, mice, single 35 mg/kg SC
  AUC0-24h/Dose, mean: 0.36 (μg∙h/mL)/(mg/kg)
[1]; female, BALB/c, mouse, epithelial lining fluid (ELF) / plasma, mice, single 35 mg/kg SC, read-out: AUC ratio for ELF to plasma
  Kp: ~2
[1]; [3]
  Tmax: 30 min
  AUC(0-t): 12600 ± 1170 ng·h/mL
  Cmax: 2160 ± 500 ng/mL
[1]; [4]
  Tmax: 30 min
  AUC(0-t): 6250 ± 930 ng·h/mL
  Cmax: 1330 ± 180 ng/mL
[1]; mice, single SC dose 35 mg/kg
  distribution from plasma to ELF (penetration into the lung compartment): rapid penetration
[1]; plasma, mice, single 35 mg/kg SC
  AUC0-24h/Dose, mean: 0.18 (μg∙h/mL)/(mg/kg)
[2]; 10, 30, and 100 mg/kg SC, vs vehicle
  levels of all cytokines and chemokines assessed, as well as of MMP-9, in lung homogenate: significantly reduced
[2]; 30 and 100 mg/kg SC
  MMP-9 levels in lung homogenate: Significant reductions
[2]; [5]
  IL-1β concentrations in lung homogenate: dose-dependent effect
  chemokines and GM-CSF in lung homogenate: Significant reductions
[2]; [6]
  IL-6 concentrations in lung homogenate: significantly reduced
  TNF-α concentrations in lung homogenate: significantly reduced
[2]; highest dose, 100 mg/kg SC
  IL-1β concentrations in lung homogenate: significant inhibition
[2]; lung homogenate, LPS, 10 mg/kg
  CCL2 % reduction: 93%
  CXCL1 % reduction: 62%
  CXCL2 % reduction: 73%
  GM-CSF % reduction: 85%
  IL-1β % reduction: -19%
  IL-6 % reduction: 106%
  MMP9 % reduction: 8%
  TNFα % reduction: 79%
[2]; [7]
  CCL2: 1377.65 pg/mL and 537.39 pg/mL and 646.70 pg/mL and 438.83 pg/mL and 518.31 pg/mL and 1456.64 pg/mL and 908.74 pg/mL and 229.87 pg/mL
  CXCL1: 6971.93 pg/mL and 4329.90 pg/mL and 5523.90 pg/mL and 4582.09 pg/mL and 5582.50 pg/mL and 5633.76 pg/mL and 4136.19 pg/mL and 3104.94 pg/mL
  CXCL2: 5052.98 pg/mL and 3065.52 pg/mL and 3267.04 pg/mL and 2748.29 pg/mL and 3142.03 pg/mL and 3891.00 pg/mL and 3712.25 pg/mL and 1806.80 pg/mL
  GM-CSF: 67.71 pg/mL and 29.84 pg/mL and 24.75 pg/mL and 26.44 pg/mL and 92.13 pg/mL and 45.24 pg/mL
  IL-1β: 13048 pg/mL and 11802 pg/mL and 8955 pg/mL and 11618 pg/mL and 14924 pg/mL and 15796 pg/mL and 14205 pg/mL and 13632 pg/mL
  IL-6: 250.42 pg/mL and 122.57 pg/mL and 71.56 pg/mL and 75.97 pg/mL and 378.35 pg/mL and 273.00 pg/mL and 109.22 pg/mL
  MMP9: 2581 pg/mL and 2222 pg/mL and 2051 pg/mL and 2196 pg/mL and 2373 pg/mL and 1878 pg/mL and 2354 pg/mL and 2294 pg/mL
  TNFα: 82.13 pg/mL and 385.92 pg/mL and 198.20 pg/mL and 183.71 pg/mL and 132.63 pg/mL and 135.37 pg/mL and 337.98 pg/mL and 306.86 pg/mL
[2]; [8]
  CCL2 Mean: 764 pg/mL
  CXCL1, Mean: 4983 pg/mL
  CXCL2, Mean: 3336 pg/mL
  GM-CSF Mean: 43 pg/mL
  IL-1β Mean: 12997 pg/mL
